Source: PMC11878259 (2025)

Tests used:
[1] = system: U50G, C52A, A66U (eBroccoli) (RNA, aptamer) GCCCGGAUAGCUCAGUCGGUAGAGCAGCGGAGACGGUCGGGUCCAGAUAGUAGUAUCUGUCGAGUUGAGUGUGGGCUCCGCGGGUCCAGGGUUCAAGUCCCUGUUCGGGCGCCA; experiment: fluorescence light-up, microplate; settings: 0.5 mM K+, 10 mM Na+, 0.2 mM Mg2+, 0.1 mM Ca2+; 20 mM Tris pH 7.5; 25, 37, 45 °C; 0.5 µM RNA, 10 µM compound
[2] = system: Cy5-labeled Broccoli (RNA, aptamer) GCCCGGAUAGCUCAGUCGGUAGAGCAGCGGAGACGGUCGGGUCCAGAUAUUCGUAUCUGUCGAGUAGAGUGUGGGCUCCGCGGGUCCAGGGUUCAAGUCCCUGUUCGGGCGCCA; experiment: fluorescence imaging in RNA-peptide condensates; settings: 100 mM K+, 1 mM Mg2+; 40 mM Tris pH 7.5, room temperature; 5 µM RNA; rU22 or rA22 with [RGRGG]5 or R10
[3] = system: Cy5-labeled eBroccoli (RNA, aptamer) GCCCGGAUAGCUCAGUCGGUAGAGCAGCGGAGACGGUCGGGUCCAGAUAGUAGUAUCUGUCGAGUUGAGUGUGGGCUCCGCGGGUCCAGGGUUCAAGUCCCUGUUCGGGCGCCA; experiment: fluorescence imaging in RNA-peptide condensates; settings: 100 mM K+, 1 mM Mg2+; 40 mM Tris pH 7.5, room temperature; 5 µM RNA; rU22 or rA22 with [RGRGG]5 or R10

- binding [1]: yes
- binding [2]: yes
- binding [3]: yes
Compound: CC1=N/C(=C\c2cc(F)c(O)c(F)c2)C(=O)N1CC(F)(F)F
